The values below come from patent US5236837A, “Enzymatic reagent for D-malate determination” (Boehringer Mannheim GmbH, priority 1989, dated 1993).

For data set [1], the system named is D-malic enzyme from Pseudomonas fluorescens. Conditions: cited from earlier work.
Data set [2] concerns the target T1, NAD+-dependent D-malate dehydrogenase (decarboxylating, E.C. 1.1.1.83) from E. coli (D-MDH, E. coli DSM 5496) (Escherichia coli, UniProt P76251).
T1 construct: two 42 kD subunits, full length, no tag
T1 sequence (P76251 1-361): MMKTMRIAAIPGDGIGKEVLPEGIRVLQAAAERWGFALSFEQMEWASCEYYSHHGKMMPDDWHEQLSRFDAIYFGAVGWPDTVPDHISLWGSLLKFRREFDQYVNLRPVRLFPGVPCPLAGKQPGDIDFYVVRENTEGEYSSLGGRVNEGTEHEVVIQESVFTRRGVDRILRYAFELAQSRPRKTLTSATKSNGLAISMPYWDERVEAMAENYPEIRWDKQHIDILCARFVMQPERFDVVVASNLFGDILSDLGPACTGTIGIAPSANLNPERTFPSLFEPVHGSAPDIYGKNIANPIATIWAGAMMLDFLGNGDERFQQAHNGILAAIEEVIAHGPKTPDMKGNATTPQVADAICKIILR
As to the kind of experiment: Km determination and EDTA effect on the enzyme according to the invention. Type of data set: biochemical. As to conditions: EDTA 0.7 mg/ml test solution.

For data set [3], the system named is D-malic enzyme from E. coli K12 (Crookes strain). As to conditions: EDTA 3.3 μmol/ml; raw extract; cited from earlier work.
Substrate in data set [4]: NC(=O)c1ccc[n+]([C@@H]2O[C@H](COP(=O)([O-])OP(=O)(O)OC[C@H]3O[C@@H](n4cnc5c(N)ncnc54)[C@H](O)[C@@H]3O)[C@@H](O)[C@H]2O)c1
As to the kind of experiment: Km determination and EDTA effect on the enzyme according to the invention. The data set is classed as biochemical, E. coli. As to conditions: other: Tris, pH 8.5, 25° C., pH 8.5.

Substrate in data set [5]: O=C(O)C[C@@H](O)C(=O)O
The description is as above. Type of data set: biochemical, E. coli.

Where two headings read alike, the source gives them in different places.

Turning to `O=C(O)C[C@@H](O)C(=O)O` [D-malate], the Km (as a rule, the concentration of substrate that gives half-maximal velocity) in data set [1] (read-out: Km for malate) was 300 µM.
Regarding `O=C(O)CN(CCN(CC(=O)O)CC(=O)O)CC(=O)O` [EDTA], the “Inhibition of enzyme activity by EDTA” value in data set [2] is listed as “not inhibited”. The “Inhibition of the reaction by EDTA” value in data set [3] is on record as “inhibited”.
As for `NC(=O)c1ccc[n+]([C@@H]2O[C@H](COP(=O)([O-])OP(=O)(O)OC[C@H]3O[C@@H](n4cnc5c(N)ncnc54)[C@H](O)[C@@H]3O)[C@@H](O)[C@H]2O)c1` [NAD^+], in data set [1] (read-out: Km for NAD+), the Km was 80 µM.

B1: NAD+-dependent D-malate dehydrogenase (decarboxylating, E.C. 1.1.1.83) from E. coli (D-MDH, E. coli DSM 5496) (Escherichia coli K-12) (protein)
chain: T1 sequence (P76251 1-361)
notes: two 42 kD subunits, full length, no tag
B1: the Km in data set [4] is 400 µM; in data set [5] (other: HEPES, pH 9.0, 25° C., pH 9.0), 1500 µM; in data set [5] (other: Tris, pH 8.5, 25° C., pH 8.5), 1100 µM.
